“Also recorded” adds a separate entry of the source. Read-outs that look alike come from different tables or passages of the source.
Columns and labels:
[1] = system: Hep3B hepatoma cell line; experiment: Inhibition on the proliferation of Hep3B cells (luminescent cell viability assay); assay type: cell-based; conditions: Homo sapiens, 72 hours
Protocol: The effect of the compounds of the present invention on cell proliferation of Hep3B hepatoma cell line was assessed using a luminescent cell viability assay (Table 2).
(§1) CellTilter-Glo reagent (Promega, Cat. No. G7572) consists of CTG lyophilized powder and CTG buffer. Before use, the lyophilized powder needs to be dissolved in the buffer.
(§2) After overnight incubation, 3 μL of DMEM diluted compound was added to each well, which was then gently centrifuged to mix well, and then the 384-well plate was placed in a 37° C., 5% CO2 incubator to continue the culture, and after 72 hours, the plate was taken out and allowed to stand at room temperature for 30 minutes, next added 15 μL of CTG reagent per well, which was warmed up to room temperature, the plate was shaken gently on a shaker for 3 minutes to ensure sufficient cell lysis, allowed to stand 10 minutes to stabilize the luminescence signal, and then read the luminescence signal with EnVision (Perkin Elmer).
(§3) Where Y is the percentage of inhibition, Bottom is the bottom platform value of the S-curve, Top is the top platform value of the S-curve, X is the logarithm of the concentration of the compound to be tested, and slope factor is the slope coefficient of the curve.

[2] = system: RT4 bladder cancer cell line; experiment: Inhibition on the proliferation of RT4 cells (luminescent cell viability assay); assay type: cell-based; conditions: Homo sapiens, RT-4, 72 hours
Protocol: as §1, §2, §3
The effect of the compounds of the present invention on cell proliferation of the RT4 bladder cancer cell line was assessed using a luminescent cell viability assay (Table 2).
(§4) For the experimental method, please refer to the method for determining the inhibition on the proliferation of Hep3B cells.

[3] = molecular target: human recombinant FGFR4 catalytic domain protein (amino acid 460-802) (Homo sapiens (Human), UniProt P22455); experiment: FGFR4 activity inhibition test (HTRF kinase assay); assay type: biochemical; conditions: 90 μM ATP
Protocol: (§5) The effect of the compounds of the present invention on the in vitro activity of FGFR was assessed by measuring the phosphorylation level of the substrate in a kinase reaction using the HTRF kinase assay kit (Table 1).
(§6) If the IC50 value of a compound is very low, the initial concentration of the compound can be lowered.
(§7) The IC50 value of the compound was calculated from the 10 concentration points using the XLfit software in Excel by the following formula: Y=Bottom+(Top−Bottom)/(1+10^((log IC50−X)*slope factor))
as §3

[4] = molecular target: human recombinant FGFR3 catalytic domain protein (amino acid 399-806) (Homo sapiens (Human), UniProt P22607); experiment: FGFR3 activity inhibition test (HTRF kinase assay); assay type: biochemical; conditions: 90 μM ATP
Protocol: as §5, §6, §7, §3

[5] = molecular target: human recombinant FGFR1 catalytic domain protein (amino acid 308-731) (Homo sapiens (Human), UniProt P11362); experiment: FGFR1 activity inhibition test (HTRF kinase assay); assay type: biochemical; conditions: 40 μM ATP
Protocol: as §5, §6, §7, §3

[6] = system: SNU-16 gastric cancer cell line; experiment: Inhibition on the proliferation of SNU-16 cells (luminescent cell viability assay); assay type: cell-based; conditions: Homo sapiens, 72 hours
Protocol: as §1, §2, §3
The effect of the compounds of the present invention on cell proliferation of SNU-16 gastric cancer cell line was assessed using a luminescent cell viability assay (Table 2).
as §4

[7] = molecular target: human recombinant FGFR2 catalytic domain protein (amino acid 400-821) (Homo sapiens (Human), UniProt P21802); experiment: FGFR2 activity inhibition test (HTRF kinase assay); assay type: biochemical; conditions: 50 μM ATP
Protocol: as §5, §6, §7, §3

[8] = system: FGFR2-overexpressed SNU-16 gastric cancer cell line derived xenograft tumors; assay type: in vivo; conditions: for TGI % (tumor growth inhibition) / mean tumor size: day 25
Protocol: The cells were harvested in 90% confluence and no less than 90% viability, and then counted. […] Mice were inoculated subcutaneously into the right flank with 200 uL of 8×10^6 SNU-16 cells resuspended in 50% Matrigel (purchased from Corning). […] Dosing was initiated on day 0 and effects on tumor growth were evaluated by measuring the percentage of tumor growth inhibition (TGI) at the end of the study. Tolerability was assessed by body weight loss, lethality, and clinical signs of adverse treatment-related side effects. Tumor volume and body weight were measured twice per week during the administration period. The percentage of TGI was determined on day 25 after treatment. The difference between the mean value of tumor volume in the treatment group and that in the vehicle group was analyzed for significance using one-way ANOVA (followed by Dennett's test) at each time point and a P<0.05 was considered to be statistically significant.

Sequence of human recombinant FGFR2 catalytic domain protein (amino acid 400-821) (P21802 400-821): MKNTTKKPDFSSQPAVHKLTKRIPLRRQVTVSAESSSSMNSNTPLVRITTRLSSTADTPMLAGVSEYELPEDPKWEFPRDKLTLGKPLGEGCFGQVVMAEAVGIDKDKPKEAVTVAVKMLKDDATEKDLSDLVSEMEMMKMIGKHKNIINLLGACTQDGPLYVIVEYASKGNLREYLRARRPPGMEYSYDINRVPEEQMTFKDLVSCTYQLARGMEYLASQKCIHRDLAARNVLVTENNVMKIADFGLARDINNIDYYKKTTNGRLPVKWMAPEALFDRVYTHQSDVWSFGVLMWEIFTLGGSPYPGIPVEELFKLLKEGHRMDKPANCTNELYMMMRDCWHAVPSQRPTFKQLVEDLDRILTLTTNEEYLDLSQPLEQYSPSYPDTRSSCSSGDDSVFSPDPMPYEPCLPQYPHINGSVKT
Sequence of human recombinant FGFR3 catalytic domain protein (amino acid 399-806) (P22607 399-806): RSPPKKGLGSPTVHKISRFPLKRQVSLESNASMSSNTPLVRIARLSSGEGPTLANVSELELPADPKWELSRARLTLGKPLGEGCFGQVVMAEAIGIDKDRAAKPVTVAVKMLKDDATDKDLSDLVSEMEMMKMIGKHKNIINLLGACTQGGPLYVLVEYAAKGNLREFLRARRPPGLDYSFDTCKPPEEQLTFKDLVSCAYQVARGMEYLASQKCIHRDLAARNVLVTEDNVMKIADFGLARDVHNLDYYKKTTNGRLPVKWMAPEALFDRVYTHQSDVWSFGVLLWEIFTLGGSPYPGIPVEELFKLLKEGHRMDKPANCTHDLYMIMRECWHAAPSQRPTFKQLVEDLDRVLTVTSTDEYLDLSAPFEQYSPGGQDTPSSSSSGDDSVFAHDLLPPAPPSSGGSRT
Sequence of human recombinant FGFR1 catalytic domain protein (amino acid 308-731) (P11362 other isoform, or with tags, fused parts or gaps): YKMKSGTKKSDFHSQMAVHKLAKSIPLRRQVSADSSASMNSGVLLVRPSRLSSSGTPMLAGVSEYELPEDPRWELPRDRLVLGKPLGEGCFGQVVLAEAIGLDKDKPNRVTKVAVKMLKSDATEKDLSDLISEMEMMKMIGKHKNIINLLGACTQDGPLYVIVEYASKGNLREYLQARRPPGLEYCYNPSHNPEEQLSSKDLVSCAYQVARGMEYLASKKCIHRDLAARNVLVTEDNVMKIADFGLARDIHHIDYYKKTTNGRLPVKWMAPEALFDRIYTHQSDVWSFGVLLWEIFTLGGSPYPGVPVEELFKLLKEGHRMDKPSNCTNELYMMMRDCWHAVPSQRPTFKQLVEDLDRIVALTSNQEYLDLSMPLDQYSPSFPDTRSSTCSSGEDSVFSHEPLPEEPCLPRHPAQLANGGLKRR
Sequence of human recombinant FGFR4 catalytic domain protein (amino acid 460-802) (P22455 460-802): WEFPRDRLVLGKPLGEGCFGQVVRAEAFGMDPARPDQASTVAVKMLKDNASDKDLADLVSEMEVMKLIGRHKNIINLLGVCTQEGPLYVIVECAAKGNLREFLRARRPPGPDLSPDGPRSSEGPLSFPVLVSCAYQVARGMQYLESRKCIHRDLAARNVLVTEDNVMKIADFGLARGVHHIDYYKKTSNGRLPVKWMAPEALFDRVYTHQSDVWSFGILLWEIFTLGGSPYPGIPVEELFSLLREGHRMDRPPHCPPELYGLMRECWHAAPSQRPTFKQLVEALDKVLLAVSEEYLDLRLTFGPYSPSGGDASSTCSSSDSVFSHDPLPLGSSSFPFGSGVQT

| SMILES | IC50 [1] | IC50 [2] | IC50 [3] | IC50 [4] | IC50 [5] | IC50 [6] | IC50 [7] | other results |
| --- | --- | --- | --- | --- | --- | --- | --- | --- |
| C=CC(=O)N1CC[C@H](n2cc(C(N)=O)c(C#Cc3cc(OC)cc(OC)c3)n2)C1 [Compound 1, (S)-1-(1-acryloylpyrrolidin-3-yl)-3-((3,5-dimethoxyphenyl)ethynyl)-1H-pyrazole-4-carboxamide] | 0.01 to 0.1 µM | 0.01 to 0.1 µM | 0.01 to 0.1 µM | 0.01 to 0.1 µM | 0.01 to 0.1 µM | 0.01 to 0.1 µM | 0.01 to 0.1 µM | – |
| C=CC(=O)N1CC[C@H](n2nc(C#Cc3cc(OC)cc(OC)c3)c(C(N)=O)c2N)C1 [Compound 7, (S)-1-(1-acryloylpyrrolidin-3-yl)-5-amino-3-((3,5-dimethoxyphenyl)ethynyl)-1H-pyrazole-4-carboxamide] | < 0.01 µM | < 0.01 µM | < 0.01 µM | < 0.01 µM | < 0.01 µM | < 0.01 µM | < 0.01 µM | – |
| C=CC(=O)N1CC[C@H](n2nc(C#Cc3cc(OC)cc(OC)c3F)c(C(N)=O)c2N)C1 [Compound 17, (S)-1-(1-acryloylpyrrolidin-3-yl)-5-amino-3-((2-fluoro-3,5-dimethoxyphenyl)ethynyl)-1H-pyrazole-4-carboxamide] | < 0.01 µM | < 0.01 µM | < 0.01 µM | < 0.01 µM | < 0.01 µM | < 0.01 µM | < 0.01 µM | – |
| C=CC(=O)N1CC[C@H](n2nc(C#Cc3cc(OC)cc(OC)c3)c(C(N)=O)c2NC)C1 [Compound 21, (S)-1-(1-acryloylpyrrolidin-3-yl)-3-((3,5-dimethoxyphenyl)ethynyl)-5-(methylamino)-1H-pyrazole-4-carboxamide] | < 0.01 µM | < 0.01 µM | < 0.01 µM | < 0.01 µM | < 0.01 µM | < 0.01 µM | < 0.01 µM | TGI % (tumor growth inhibition) ([8]; 0.3 mg/kg oral BID for 25 days): 91.0%; mean tumor size ([8]; 0.3 mg/kg oral BID for 25 days): 240 mm^3; TGI % (tumor growth inhibition) ([8]; 1 mg/kg oral BID for 25 days): 88.3%; mean tumor size ([8]; 1 mg/kg oral BID for 25 days): 261 mm^3; TGI % (tumor growth inhibition) ([8]; 3 mg/kg oral BID for 25 days): 95.9%; mean tumor size ([8]; 3 mg/kg oral BID for 25 days): 200 mm^3; locomotor activities ([8]; 10 mg/kg BID): without significant decrease of locomotor activities; mean body weight loss ([8]; 10 mg/kg BID): 11%; TGI % (tumor growth inhibition) ([8]; 10 mg/kg oral BID for 25 days): 108%; mean tumor size ([8]; 10 mg/kg oral BID for 25 days): 103 mm^3; anti-tumor activity (overall) ([8]; 0.3, 1, 3 and 10 mg/kg oral BID): dose-dependently reduced tumor size; also recorded: marked anti-tumor activities; body weight loss ([8]; 3, 1 and 0.3 mg/kg BID, during the study): no body weight loss; tolerability ([8]; 3, 1 and 0.3 mg/kg BID, tumor-bearing animals): well-tolerated; tolerability (overall summary) ([8]; tumor-bearing animals, summary of study): well-tolerated |
| C=CC(=O)N1CC[C@H](n2nc(C#Cc3cc(OC)cc(OC)c3F)c(C(N)=O)c2NC)C1 [Compound 22, (S)-1-(1-acryloylpyrrolidin-3-yl)-3-((2-fluoro-3,5-dimethoxyphenyl)ethynyl)-5-(methylamino)-1H-pyrazole-4-carboxamide] | < 0.01 µM | < 0.01 µM | < 0.01 µM | < 0.01 µM | < 0.01 µM | < 0.01 µM | < 0.01 µM | – |
| C=CC(=O)N1CC[C@H](n2nc(C#Cc3cc(Cl)ccc3F)c(C(N)=O)c2NC)C1 [Compound 23, (S)-1-(1-acryloylpyrrolidin-3-yl)-3-((5-chloro-2-fluorophenyl)ethynyl)-5-(methylamino)-1H-pyrazole-4-carboxamide] | < 0.01 µM | 0.01 to 0.1 µM | 0.01 to 0.1 µM | < 0.01 µM | 0.01 to 0.1 µM | < 0.01 µM | < 0.01 µM | – |
| C=CC(=O)N1CC[C@H](n2nc(C#Cc3cc(OC)cc(OC)c3)c(C(N)=O)c2NCC2CC2)C1 [Compound 26, (S)-1-(1-acryloylpyrrolidin-3-yl)-5-((cyclopropylmethyl)amino)-3-((3,5-dimethoxyphenyl)ethynyl)-1H-pyrazole-4-carboxamide] | 0.01 to 0.1 µM | < 0.01 µM | < 0.01 µM | < 0.01 µM | < 0.01 µM | < 0.01 µM | < 0.01 µM | – |
| C=CC(=O)N1CC[C@H](n2nc(C#Cc3cc(OC)cc(OC)c3)c(C(N)=O)c2NCCO)C1 [Compound 29, (S)-1-(1-acryloylpyrrolidin-3-yl)-3-((3,5-dimethoxyphenyl)ethynyl)-5-((2-hydroxyethyl)amino)-1H-pyrazole-4-carboxamide] | < 0.01 µM | < 0.01 µM | 0.01 to 0.1 µM | < 0.01 µM | 0.01 to 0.1 µM | < 0.01 µM | < 0.01 µM | – |
| C=CC(=O)N1CC[C@H](n2nc(C#Cc3cc(OC)cc(OC)c3)c(C(N)=O)c2NCCCN2CCOCC2)C1 [Compound 30, (S)-1-(1-acryloylpyrrolidin-3-yl)-3-((3,5-dimethoxyphenyl)ethynyl)-5-((3-morpholinopropyl)amino)-1H-pyrazole-4-carboxamide] | 0.01 to 0.1 µM | < 0.01 µM | 0.01 to 0.1 µM | < 0.01 µM | 0.01 to 0.1 µM | < 0.01 µM | < 0.01 µM | – |
| C=CC(=O)N1CC[C@H](n2nc(C#Cc3cc(OC)cc(OC)c3)c(C(N)=O)c2NCCN2CCOCC2)C1 [Compound 31, (S)-1-(1-acryloylpyrrolidin-3-yl)-3-((3,5-dimethoxyphenyl)ethynyl)-5-((2-morpholinoethyl)amino)-1H-pyrazole-4-carboxamide] | 0.01 to 0.1 µM | < 0.01 µM | – | < 0.01 µM | 0.01 to 0.1 µM | < 0.01 µM | < 0.01 µM | – |

— patent publication US11572353B2, “Alkynyl-substituted heterocyclic compound, preparation method therefor and medical use thereof” (BEIJING INNOCARE PHARMA TECH CO., LTD., priority 2016, dated 2023)
